A short description of data set [1]: Cytotoxicity against Swiss mouse peritoneal macrophages after 24 hrs by MTT assay. The data set is classed as cell-based, Peritoneal macrophage cell. A general note: Formazan colour is commonly taken as a measure of viable cells.
A short description of data set [2]: Selectivity index, ratio of CC50 for Swiss mouse peritoneal macrophages to IC50 for Leishmania amazonensis IFLA/BR/67/PH8 promastigotes. The data set is classed as functional.
Data set [3] relates to Leishmania amazonensis. Briefly: Antileishmanial activity against Leishmania amazonensis IFLA/BR/67/PH8 promastigotes […] assessed as inhibition of parasite growth after 72 hrs by MTT assay. The data set is classed as functional, organism-based. Particulars: IFLA/BR/67/PH8, 72 h.
The test system of data set [4] is Leishmania amazonensis. Briefly: Antileishmanial activity against Leishmania amazonensis. The data set is classed as functional, organism-based.

For the compound `C=C(C(=O)OCCO)C(O)c1ccc2ccccc2c1` (racemic), in data set [1], the cytotoxic concentration (CC50) (commonly the concentration giving 50% cytotoxicity) at 24 h was found to be 118 µM. In addition, the “Ratio CC50/IC50” value in data set [2] is 2.24. Besides, the half-inhibitory concentration (IC50) (in general, the concentration that inhibits the measured activity by half) in data set [3] worked out at 52.5 µM.

`C=C(C(=O)OCCO)C(O)c1cccnc1` (racemic) registered a CC50 at 24 h in data set [1] of 418 µM. The “Ratio CC50/IC50” value in data set [2] worked out at 1.29. Moreover, in data set [3], the IC50 amounted to 324 µM.

Turning to `C=C(C(=O)OCCC)C(O)c1ccc(Br)cc1` (racemic), the CC50 at 24 h in data set [1] worked out at 125 µM. In data set [2], the “Ratio CC50/IC50” value amounted to 1.67. Further, the IC50 in data set [3] was determined as 74.7 µM.

For `C=C(C(=O)OCCO)C(O)c1ccccc1[N+](=O)[O-]` (racemic), the midpoint of cytotoxicity in data set [1], the CC50 at 24 h, lay at 112 µM. Also, the “Ratio CC50/IC50” value in data set [2] is reported as 5.43. Moreover, the IC50 in data set [3] is 20.5 µM.

In data set [1], `C=C(C(=O)OCCO)C(O)c1ccc([N+](=O)[O-])cc1` (racemic) registered a CC50 at 24 h of 46.9 µM. The “Ratio CC50/IC50” value in data set [2] was 0.88. For the same compound, in data set [3], the IC50 is 53 µM.

Take `C=C(C(=O)OCCO)C(O)c1cccc([N+](=O)[O-])c1` (racemic): in data set [1], the CC50 at 24 h was found to be 69 µM. The “Ratio CC50/IC50” value in data set [2] is listed as 1.06. Besides, the IC50 in data set [3] turned out to be 64.6 µM.

Regarding `C=C(C(=O)OCCC)C(O)c1ccncc1` (racemic), the CC50 at 24 h in data set [1] came to 272 µM. In addition, in data set [2], the “Ratio CC50/IC50” value was 1.83. Besides, the IC50 in data set [3] amounted to 149 µM.

The compound `C=C(C(=O)OCCO)C(O)c1ccncc1` (racemic) returned a CC50 at 24 h in data set [1] of 458 µM. For the same compound, the “Ratio CC50/IC50” value in data set [2] was 1.2. The IC50 in data set [3] is 382 µM.

Take `C=C(C(=O)OCCC)C(O)c1cccc([N+](=O)[O-])c1` (racemic): it took 114 µM to reach half-maximal cytotoxicity in data set [1] (CC50 at 24 h). Moreover, the “Ratio CC50/IC50” value in data set [2] came out at 1.57. For the same compound, in data set [3], the IC50 worked out at 72.2 µM.

Turning to `C=C(C(=O)OC)C(O)c1ccccc1[N+](=O)[O-]` (centres undefined), in data set [4], the IC50 amounted to 62 µM.

In the case of `C=C(C(=O)OCCO)C(O)c1ccc(Br)cc1` (racemic), the CC50 at 24 h in data set [1] is 157 µM. Besides, the “Ratio CC50/IC50” value in data set [2] was found to be 2.77. For the same compound, in data set [3], the IC50 was determined as 56.7 µM.

In turn, `C=C(C(=O)OCCC)C(O)c1ccccc1[N+](=O)[O-]` (racemic) gave a CC50 at 24 h in data set [1] of 135 µM. The “Ratio CC50/IC50” value in data set [2] came to 4.75. For the same compound, in data set [3], the IC50 was determined as 28.4 µM.

In data set [1], `C=C(C(=O)OCCC)C(O)c1ccc2ccccc2c1` (racemic) registered a CC50 at 24 h of 149 µM. The “Ratio CC50/IC50” value in data set [2] is 2.59. Moreover, the IC50 in data set [3] was 54.5 µM.

As for `C=C(C(=O)OCCO)C(O)c1ccccn1` (racemic), the midpoint of cytotoxicity in data set [1], the CC50 at 24 h, lay at 749 µM. Also, the “Ratio CC50/IC50” value in data set [2] came out at 2.81. For the same compound, in data set [3], the IC50 came out at 266 µM.

`C=C(C(=O)OCCC)C(O)c1cccnc1` (racemic): the CC50 at 24 h in data set [1] amounted to 384 µM. Besides, in data set [2], the “Ratio CC50/IC50” value came out at 1.81. Moreover, the IC50 in data set [3] stood at 211 µM.

In data set [1], `C=C(C(=O)OCCC)C(O)c1ccc([N+](=O)[O-])cc1` (racemic) displayed a CC50 at 24 h of 122 µM. For the same compound, the “Ratio CC50/IC50” value in data set [2] worked out at 2.33. Also, the 50% inhibitory concentration (IC50) in data set [3] worked out at 52 µM.

On to `C=C(C(=O)OCCC)C(O)c1ccccn1` (racemic), for which, in data set [1], the 50% cytotoxic concentration (CC50) at 24 h stood at 715 µM. Besides, the “Ratio CC50/IC50” value in data set [2] is reported as 3.68. The IC50 in data set [3] stood at 194 µM.

For the origin of these results see ChEMBL document CHEMBL1821624, “Synthesis, evaluation against Leishmania amazonensis and cytotoxicity assays in macrophages of sixteen new congeners Morita-Baylis-Hillman adducts” (Eur J Med Chem, 2011).
